Test results taken from patent US11174254B2, “Aniline-substituted 1,2-dihydropyrrol[3,4-C]pyridin/pyrimidin-3-one derivative and use thereof” (SHANGHAI HAIYAN PHARMACEUTICAL TECHNOLOGY CO., LTD., priority 2017, dated 2021).

How the values were obtained:
[1] = biological target: wild-type EGFR kinase (Homo sapiens (Human), UniProt P00533); test: Wild type EGFR kinase inhibition test (z-lyte); type: biochemical; settings: wild-type EGFR kinase Invitrogen PV3872, Tyr04 substrate, read-out: EGFR WT IC50
Chain of wild-type EGFR kinase (P00533 25-1210): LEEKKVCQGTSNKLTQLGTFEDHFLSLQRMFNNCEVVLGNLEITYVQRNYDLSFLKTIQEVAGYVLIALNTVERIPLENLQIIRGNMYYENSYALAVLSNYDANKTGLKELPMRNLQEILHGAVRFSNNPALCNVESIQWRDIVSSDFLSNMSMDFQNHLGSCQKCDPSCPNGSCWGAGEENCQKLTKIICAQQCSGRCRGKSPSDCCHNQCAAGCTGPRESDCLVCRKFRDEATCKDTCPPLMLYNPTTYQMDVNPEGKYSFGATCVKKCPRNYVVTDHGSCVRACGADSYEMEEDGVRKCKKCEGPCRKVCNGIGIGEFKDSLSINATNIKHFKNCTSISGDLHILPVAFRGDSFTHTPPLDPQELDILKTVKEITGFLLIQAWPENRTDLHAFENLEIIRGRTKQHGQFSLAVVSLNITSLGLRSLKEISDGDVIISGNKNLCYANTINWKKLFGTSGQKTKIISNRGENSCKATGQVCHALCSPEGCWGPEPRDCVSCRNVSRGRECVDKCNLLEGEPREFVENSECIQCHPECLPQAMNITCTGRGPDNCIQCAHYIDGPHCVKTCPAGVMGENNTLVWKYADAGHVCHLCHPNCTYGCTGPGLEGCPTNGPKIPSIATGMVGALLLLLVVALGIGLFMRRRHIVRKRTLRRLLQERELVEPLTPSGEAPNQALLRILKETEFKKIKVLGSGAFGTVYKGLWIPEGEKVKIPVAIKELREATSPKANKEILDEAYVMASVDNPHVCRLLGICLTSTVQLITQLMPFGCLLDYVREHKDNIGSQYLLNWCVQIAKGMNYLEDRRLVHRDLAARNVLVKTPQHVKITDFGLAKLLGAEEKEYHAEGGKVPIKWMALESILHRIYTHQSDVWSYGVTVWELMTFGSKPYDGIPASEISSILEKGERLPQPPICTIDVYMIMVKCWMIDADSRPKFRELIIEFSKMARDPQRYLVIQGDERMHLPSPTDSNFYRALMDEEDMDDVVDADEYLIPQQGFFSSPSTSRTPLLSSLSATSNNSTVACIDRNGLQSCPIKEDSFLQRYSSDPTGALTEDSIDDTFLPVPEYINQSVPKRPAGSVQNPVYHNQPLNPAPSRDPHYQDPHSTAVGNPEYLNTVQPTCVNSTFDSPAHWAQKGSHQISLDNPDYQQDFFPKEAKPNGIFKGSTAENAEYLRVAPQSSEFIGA
Source text: All the following reagents used in z-lyte test are commercially available from Invitrogen.
The calculation method for the inhibition ratio (referring to the instruction of PV3363, Invitrogen) was as follows: ER=Coumarin Emission (450 nm)/Fluorescein Emission (520 nm) 1. Phosphorylation ratio=(1−((ER×C3520 nm−C3450 nm)/((C1450 nm−C3450 nm)+ER×(C3520 nm−C1520 nm))))×100% 2. Inhibition ratio (IR)=(1-phosphorylation ratio of the test compound)/(phosphorylation ratio of C2))×100% 3.
The half-inhibitory concentration IC50 was calculated by fitting with XLFIT 5.0 software (IDBS, UK).

[2] = biological target: BTK WT (Homo sapiens (Human), UniProt Q06187); test: Lantha Screening Kinase Reaction Assay; type: biochemical; settings: for IC50: TR-FRET LanthaScreen, kinase Invitrogen PV3363, 60 min at 25° C.; for inhibitory activity against enzyme (BTK WT), in words: comment on table 1, G-12 and G-17 compared with G-2
Chain of BTK WT (Q06187 whole entry): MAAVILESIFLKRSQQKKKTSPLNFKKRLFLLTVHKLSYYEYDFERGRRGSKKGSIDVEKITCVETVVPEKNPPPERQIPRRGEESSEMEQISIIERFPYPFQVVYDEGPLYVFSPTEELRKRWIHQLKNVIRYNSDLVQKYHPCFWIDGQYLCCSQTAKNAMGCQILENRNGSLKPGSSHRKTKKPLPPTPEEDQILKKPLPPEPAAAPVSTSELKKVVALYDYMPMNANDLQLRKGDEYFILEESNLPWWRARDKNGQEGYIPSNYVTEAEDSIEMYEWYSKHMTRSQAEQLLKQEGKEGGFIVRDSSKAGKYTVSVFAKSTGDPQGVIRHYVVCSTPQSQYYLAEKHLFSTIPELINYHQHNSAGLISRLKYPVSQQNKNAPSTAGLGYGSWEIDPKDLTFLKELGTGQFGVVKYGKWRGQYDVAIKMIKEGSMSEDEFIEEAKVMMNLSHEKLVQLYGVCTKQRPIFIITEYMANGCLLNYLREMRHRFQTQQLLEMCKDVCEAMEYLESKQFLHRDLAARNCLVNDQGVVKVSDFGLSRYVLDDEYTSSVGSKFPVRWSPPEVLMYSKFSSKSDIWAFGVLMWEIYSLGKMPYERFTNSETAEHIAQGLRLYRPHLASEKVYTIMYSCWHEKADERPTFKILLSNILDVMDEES
Method: The compound was predissolved in 100% DMSO.10 mM drug stock solution was obtained by dissolution at room temperature and then gradiently diluted with 8 vol % DMSO solution to a final concentration of 10-0.005 μM. 2.5 μl of a solution of substance to be tested and 2.5 μl of kinase (Invitrogen PV3363) diluted with the reaction buffer were added into each well of 384-well plate (Corning 3676), and then the mixture of Fluososcei-PolyGT (Invitrogen PV3610) substrate and ATP (Invitrogen PV3227) diluted with 5 μl of the reaction buffer were added to initiate the reaction. Among the wells, the kinase in the blank well was replaced with a reaction buffer and the kinase well (Enzyme) was not added with any drug. […] The plates were read on a VictorX5 fluorescent plate reader (PerkinElmer) and the light absorption at an excitation wavelength of 340 nm and emission wavelengths of 500 nm and 520 nm was measured.
2. The half-inhibitory concentration IC50 was calculated by fitting with XLFIT 5.0 software (IDBS, UK).

[3] = biological target: βBTK Y223 (Ramos cells) (Homo sapiens (Human), UniProt Q06187); test: HTRF method for detecting intracellular βBTK Y223 phosphorylation; type: cell-based; settings: 1 hour compound incubation, sodium pervanadate stimulation
Chain of βBTK Y223 (Ramos cells) (Q06187 whole entry): as above
Method: The compound was predissolved in 100% DMSO. 10 mM drug stock solution was obtained by dissolution at room temperature and then gradiently diluted with 5 vol % DMSO solution to a final concentration of 3-0.0014 μM. Ramos cells were seeded into a 96-well plate at a density of 4×10^5/well with 45 μl of 1640 medium containing 10% (V/V) FBS per well, and 5 μl of diluted solution of substance to be tested was added to each well. Incubation was performed for 1 hour at 37° C., 5% (V/V) CO2. 10 μl of sodium pervanadate dilution (diluted with 1640 without serum) was added, and 10 μl of serum-free medium was added to the negative control wells. Incubation was performed at 25° C. for 30 minutes on a shaker. 20 μl of lysate (4× lysate: blocked mother liquor is equal to 25:1) was added to each well and incubated for 30 minutes at 25° C. on a shaker. The 96-well plate was shaken on an oscillator at 800 rpm for 1 minute. 16 μl of cell lysate was added to a 384-well plate (Greiner 784075), and 4 μl of pre-mixed antibody solution (Phospho-BTK d2 antibody and Phospho-BTK Cryptate antibody diluted 20-fold with the test solution) was added. Incubation was performed at 25° C. overnight on a shaker. The plate was read on a VictorX5 fluorescent plate reader (PerkinElmer) and the light absorption at an excitation wavelength of 317 nm and emission wavelengths of 500 nm and 520 nm was measured (referring to the instruction of 63ADK017PEH, Cisbio). The half-inhibitory concentration IC50 was calculated by fitting with XLFIT 5.0 software (IDBS, UK).

Row | SMILES | IC50 [1] | IC50 [2] | IC50 [3] | inhibitory activity against enzyme (BTK WT), in words [2]
1 | C=CC(=O)Nc1cccc(Nc2nc(Nc3ccc(OCCOC)cc3)c3c(c2F)C(C)NC3=O)c1 (stereo not drawn) [Compound G-1, N-(3-((7-fluoro-4-((4-(2-methoxyethoxy)phenyl)amino)-1-methyl-3-oxo-2,3-dihydro-1H-pyrrolo[3,4-C]pyridin-6-yl)amino)phenyl)acrylamide] | 9270 nM | 141 nM |  | 
2 | C=CC(=O)Nc1cccc(Nc2nc3c(c(Nc4ccc(OCCOC)cc4)n2)C(=O)NC3)c1 [Compound G-2, N-(3-(4-(4-(2-methoxyethoxy)phenylamino)-5-oxo-6.7-dihydro-5H-pyrrolo[3,4-d]pyrimidin-2-ylamino)phenyl)acrylamide] | 4690 nM | 25 nM | 43 nM | 
3 | C=CC(=O)Nc1cccc(Nc2nc(Nc3ccc(OCCOC)cc3)c3c(c2F)CNC3=O)c1 [Compound G-3, N-(3-(7-fluoro-4-(4-(2-methoxyethoxy)phenylamino)-3-oxo-2,3-dihydro-1H-pyrrolo[3,4-c]pyridin-6-ylamino)phenyl)acrylamide] | > 10000 nM | 58 nM | 106 nM | 
4 | C=CC(=O)Nc1cccc(Nc2nc(Nc3ccc(N4CCN(CC(C)O)CC4)cc3)c3c(c2F)CNC3=O)c1 (stereo not drawn) [Compound G-4, N-(3-(7-fluoro-4-(4-(4-(2-hydroxypropyl)piperazin-1-yl)phenylamino)-3-oxo-2,3-dihydro-1H-pyrrolo[3,4c]pyridin-6-ylamino)phenyl)acrylamide] | 3000 nM | 10 nM | 6 nM | 
5 | C=CC(=O)Nc1cccc(Nc2nc(Nc3ccc(OCCOC)cc3)c3c(c2F)C(C)(C)NC3=O)c1 [Compound G-5, N-(3-(7-fluoro-4-(4-(2-methoxyethoxy)phenylamino)-1,1-dimethyl-3-oxo-2,3-dihydro-1H-pyrrolo[3,4-c]pyridin-6-ylamino)phenyl)acrylamide] |  | 156 nM |  | 
6 | C=CC(=O)Nc1cccc(Nc2nc3c(c(Nc4ccccc4)n2)C(=O)NC3)c1 [Compound G-6, N-(3-(5-oxo-4-(phenylamino)-6,7-dihydro-5H-pyrrolo[3,4-d]pyrimidin-2-ylamino)phenyl)acrylamide] | 3000 nM | 14 nM | 20 nM | 
7 | C=CC(=O)Nc1cccc(Nc2nc3c(c(Nc4cnn(C5CCOCC5)c4)n2)C(=O)NC3)c1 [Compound G-7, N-(3-(5-oxo-4-(1-(tetrahydro-2H-pyran-4-yl)-1H-pyrazol-4-ylamino)-6,7-dihydro-5H-pyrrolo[3,4d]pyrimidin-2-ylamino)phenyl)acrylamide] | 6990 nM | 19 nM | 111 nM | 
8 | C=CC(=O)Nc1cccc(Nc2nc3c(c(Nc4cnn(C)c4)n2)C(=O)NC3)c1 [Compound G-8, N-(3-(4-(1-methyl-1H-pyrazol-4-ylamino)-5-oxo-6,7-dihydro-5H-pyrrolo[3,4-d]pyrimidin-2-ylamino)phenyl)acrylamide] | 6420 nM | 9 nM | 36 nM | 
9 | C=CC(=O)Nc1cccc(Nc2nc3c(c(Nc4cnn(CC(C)(C)O)c4)n2)C(=O)NC3)c1 [Compound G-9, N-(3-(4-(1-(2-hydroxyl-2-methylpropyl)-1H-pyrazol-4-ylamino)-5-oxo-6,7-dihydro-5H-pyrrolo[3,4-d]pyrimidin-2-ylamino)phenyl)acrylamide] | 5030 nM | 55 nM | 82 nM | 
10 | C=CC(=O)Nc1cccc(Nc2cc3c(c(Nc4ccc(OCCOC)cc4)n2)C(=O)NC3)c1 [Compound G-10, N-(3-(4-(4-(2-methoxyethoxy)phenylamino)-3-oxo-2,3-dihydro-1H-pyrrolo[3,4-c]pyridin-6-ylamino)phenyl)acrylamide] | > 10000 nM | 68 nM | 164 nM | 
11 | C=CC(=O)Nc1cccc(Nc2nc3c(c(-c4cnn(C)c4)n2)C(=O)NC3)c1 [Compound G-11, N-(3-(4-(1-methyl-1H-pyrazol-4-yl)-5-oxo-6,7-dihydro-5H-pyrrolo[3,4-d]pyrimidin-2-ylamino)phenyl)acrylamide] | > 10000 nM | 48 nM | 4 nM | 
12 | C=CC(=O)Nc1cccc(Nc2nc3c(c(Oc4ccc(OCCOC)cc4)n2)C(=O)NC3)c1 [Compound G-12, N-(3-((4-(4-(2-methoxyethoxy)phenoxyl)-5-oxo-6,7-dihydro-5H-pyrrolo[3,4-d]pyrimidin-2-yl)amino)phenyl)acrylamide] | 1530 nM | 1350 nM |  | significantly reduced
13 | C=CC(=O)Nc1cccc(Nc2nc3c(c(Nc4cnn(C5CC5)c4)n2)C(=O)NC3)c1 [Compound G-13] | 3080 nM | 63 nM | 81 nM | 
14 | C=CC(=O)Nc1cccc(Nc2nc3c(c(Nc4cnn(CCOC)c4)n2)C(=O)NC3)c1 [Compound G-14] | 2690 nM | 59 nM | 103 nM | 
15 | C=CC(=O)Nc1cccc(Nc2nc3c(c(Nc4ccc(N5CCOCC5)cc4)n2)C(=O)NC3)c1 [Compound G-15] | 4260 nM | 52 nM | 36 nM | 
16 | C=CC(=O)N(CC)c1cccc(Nc2nc3c(c(Nc4ccc(N5CCN(C6COC6)C[C@@H]5C)cc4)n2)C(=O)NC3)c1 [Compound G-16] | 5680 nM | 44 nM | 62 nM | 
17 | C=CC(=O)Nc1cccc(Nc2nc3c(c(N(C)c4ccc(OCCOC)cc4)n2)C(=O)NC3)c1 [Compound G-17] | > 10000 nM | > 10000 nM |  | significantly lowered
